# Test results as given in patent US20260297080A1, “BICYCLIC COMPOUNDS AS CDK INHIBITORS” (BeOne Medicines I GmbH, priority 2022, published 2026).
# pIC50: −log10 of the molar value.
# What was measured:
# CDK2/Cyclin E1 = CDK2/Cyclin E1 (Homo sapiens, UniProt P24941); experiment: CDK2/Cyclin E1 Biochemical Assay (TR-FRET), 0.060 mM ATP; settings: 0.15 μM Rb (Ser780)-biotin substrate, pH7.0, 60 min preincubation, 120 min reaction, room temperature
# Summary of the method: (§1)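 Inhibitor concentrations up to 10 μM were preincubated with each cyclin–kinase complex for 60 minutes before ATP and biotinylated Rb (Ser780) substrate (0.15 μM) were added. After 120 minutes at room temperature, phosphorylation was quantified by HTRF and IC50 values were fitted with a four-parameter logistic equation.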
# CDK1/Cyclin B1 = CDK1/Cyclin B1 (Homo sapiens, UniProt P06493); experiment: CDK1/Cyclin B1 Biochemical Assay (TR-FRET), 0.015 mM ATP; settings: 0.15 μM Rb (Ser780)-biotin substrate, pH7.0, 60 min preincubation, 120 min reaction, room temperature
# CDK1/Cyclin B1, sequence (P06493 whole entry): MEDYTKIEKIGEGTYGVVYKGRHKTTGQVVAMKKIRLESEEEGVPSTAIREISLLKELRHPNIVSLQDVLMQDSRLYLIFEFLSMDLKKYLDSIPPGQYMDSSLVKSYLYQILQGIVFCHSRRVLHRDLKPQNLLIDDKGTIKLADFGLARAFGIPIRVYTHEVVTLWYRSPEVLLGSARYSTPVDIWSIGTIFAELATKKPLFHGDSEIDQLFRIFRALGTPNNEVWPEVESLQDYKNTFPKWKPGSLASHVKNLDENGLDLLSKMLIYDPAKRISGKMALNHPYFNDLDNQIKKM
# CDK1/Cyclin B1, sequence (P14635 whole entry partner): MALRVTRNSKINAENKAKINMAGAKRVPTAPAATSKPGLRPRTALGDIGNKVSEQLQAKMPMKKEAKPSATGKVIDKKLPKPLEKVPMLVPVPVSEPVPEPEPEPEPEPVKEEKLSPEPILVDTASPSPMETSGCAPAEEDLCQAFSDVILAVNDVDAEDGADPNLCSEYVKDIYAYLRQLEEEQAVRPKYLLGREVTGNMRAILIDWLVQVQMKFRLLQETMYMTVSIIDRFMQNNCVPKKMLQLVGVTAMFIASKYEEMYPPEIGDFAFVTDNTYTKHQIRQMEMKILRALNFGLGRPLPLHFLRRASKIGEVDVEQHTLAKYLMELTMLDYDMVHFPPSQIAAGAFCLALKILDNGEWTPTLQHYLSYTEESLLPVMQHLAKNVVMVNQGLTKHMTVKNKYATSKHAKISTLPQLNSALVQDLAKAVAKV
# Summary of the method: as §1
smiles,measurement,setting,value
"CN1c2ccc(Nc3cc([C@@H]4CC[C@H](OC(=O)NC5CCC5)C4)[nH]n3)cc2CS1(=O)=O (single isomer, unassigned) [Example 227a, cis-3-(3-((1-methyl-2,2-dioxido-1,3-dihydrobenzo[c]isothiazol-5-yl)amino)-1H-pyrazol-5-yl)cyclopentyl cyclobutylcarbamate]",pIC50,CDK2/Cyclin E1,8.46
same,pIC50,CDK1/Cyclin B1,6.81
"CN1c2ccc(Nc3cc([C@@H]4CC[C@H](OC(=O)NC5(CO)CCC5)C4)[nH]n3)cc2CS1(=O)=O (relative stereo) [Example 386, cis-3-(3-((1-methyl-2,2-dioxido-1,3-dihydrobenzo[c]isothiazol-5-yl)amino)-1H-pyrazol-5-yl)cyclopentyl(1-(hydroxymethyl)cyclobutyl)carbamate]",pIC50,CDK2/Cyclin E1,9.00
same,pIC50,CDK1/Cyclin B1,7.55
"CC(C)NC(=O)O[C@H]1CC[C@@H](c2cc(Nc3ccc4c(c3)CN(c3ccc5c(c3)CNS5(=O)=O)S4(=O)=O)n[nH]2)C1 (relative stereo) [Example 18, cis-3-(3-((1,1,1′,1′-tetraoxido-2′,3′-dihydro-3H-[2,5′-bibenzo[d]isothiazol]-5-yl)amino)-1H-pyrazol-5-yl)cyclopentyl isopropylcarbamate]",pIC50,CDK2/Cyclin E1,7.67
same,pIC50,CDK1/Cyclin B1,6.37
"CN1Cc2c(ccc(Nc3cc([C@@H]4CC[C@H](OC(=O)NC5CCC(O)CC5)C4)[nH]n3)c2F)S1(=O)=O (single isomer, unassigned) [Example 166, cis-3-(3-((4-fluoro-2-methyl-1,1-dioxido-2,3-dihydrobenzo[d]isothiazol-5-yl)amino)-1H-pyrazol-5-yl)cyclopentyl(4-hydroxycyclohexyl)carbamate]",pIC50,CDK2/Cyclin E1,8.54
same,pIC50,CDK1/Cyclin B1,7.13
"CC1(NC(=O)O[C@H]2CC[C@@H](c3cc(Nc4cc5c(cc4F)S(=O)(=O)NC5)n[nH]3)C2)CC1 (single isomer, unassigned) [Example 44a, cis-3-(3-((6-fluoro-1,1-dioxido-2,3-dihydrobenzo[d]isothiazol-5-yl)amino)-1H-pyrazol-5-yl)cyclopentyl(1-methylcyclopropyl)carbamate]",pIC50,CDK2/Cyclin E1,8.89
same,pIC50,CDK1/Cyclin B1,6.86
CN1c2ccc(Nc3cc([C@H]4CC[C@@H](OC(=O)NC(C)(C)C)C4)[nH]n3)cc2CS1(=O)=O [Example 391a],pIC50,CDK2/Cyclin E1,9.15
same,pIC50,CDK1/Cyclin B1,7.77
"CN1c2ccc(Nc3cc([C@@H]4CC[C@H](OC(=O)NC5(C)CC5)C4)[nH]n3)c(F)c2CS1(=O)=O (relative stereo) [Example 257, cis-3-(3-((4-fluoro-1-methyl-2,2-dioxido-1,3-dihydrobenzo[c]isothiazol-5-yl)amino)-1H-pyrazol-5-yl)cyclopentyl(1-methylcyclopropyl)carbamate]",pIC50,CDK2/Cyclin E1,8.82
same,pIC50,CDK1/Cyclin B1,7.48
"CC(C)NC(=O)O[C@H]1CC[C@@H](c2cc(Nc3ccc4c(c3)C(C)NS4(=O)=O)n[nH]2)C1 (single isomer, unassigned) [Example 321c, cis-3-(3-((3-methyl-1,1-dioxido-2,3-dihydrobenzo[d]isothiazol-5-yl)amino)-1H-pyrazol-5-yl)cyclopentyl isopropylcarbamate]",pIC50,CDK2/Cyclin E1,8.89
same,pIC50,CDK1/Cyclin B1,7.59
"Cc1cc(Nc2cc([C@@H]3CC[C@H](OC(=O)NC(C)C)C3)[nH]n2)cc2c1S(=O)(=O)NC2 (relative stereo) [Example 26, cis-3-(3-((7-methyl-1,1-dioxido-2,3-dihydrobenzo[d]isothiazol-5-yl)amino)-1H-pyrazol-5-yl)cyclopentyl isopropylcarbamate]",pIC50,CDK2/Cyclin E1,8.70
same,pIC50,CDK1/Cyclin B1,7.22
"[2H]C([2H])([2H])N1c2ccc(Nc3cc([C@@H]4CC[C@H](OC(=O)NCCC)C4)[nH]n3)c(F)c2CS1(=O)=O (single isomer, unassigned) [Example 268b, cis-3-(3-((4-fluoro-1-(methyl-d3)-2,2-dioxido-1,3-dihydrobenzo[c]isothiazol-5-yl)amino)-1H-pyrazol-5-yl)cyclopentyl propylcarbamate]",pIC50,CDK2/Cyclin E1,8.40
same,pIC50,CDK1/Cyclin B1,7.12
"COCC1(NC(=O)O[C@H]2CC[C@@H](c3cc(Nc4ccc5c(c4F)CNS5(=O)=O)n[nH]3)C2)CC1 (single isomer, unassigned) [Example 158b, cis-3-(3-((4-fluoro-1,1-dioxido-2,3-dihydrobenzo[d]isothiazol-5-yl)amino)-1H-pyrazol-5-yl)cyclopentyl(1-(methoxymethyl)cyclopropyl)carbamate]",pIC50,CDK2/Cyclin E1,8.48
same,pIC50,CDK1/Cyclin B1,6.61
"CC(C)NC(=O)O[C@H]1CO[C@@H](c2cc(Nc3ccc4c(c3F)CNS4(=O)=O)n[nH]2)C1 (relative stereo) [Example 378, 5-(3-((4-fluoro-1,1-dioxido-2,3-dihydrobenzo[d]isothiazol-5-yl)amino)-1H-pyrazol-5-yl)tetrahydrofuran-3-yl isopropylcarbamate]",pIC50,CDK2/Cyclin E1,8.03
same,pIC50,CDK1/Cyclin B1,6.30
"CC(C)NC(=O)O[C@H]1CC[C@@H](c2cc(Nc3ccc4c(c3F)CS(=O)(=O)N4C3CC3)n[nH]2)C1 (single isomer, unassigned) [Example 275b, cis-3-(3-((1-cyclopropyl-4-fluoro-2,2-dioxido-1,3-dihydrobenzo[c]isothiazol-5-yl)amino)-1H-pyrazol-5-yl)cyclopentyl isopropylcarbamate]",pIC50,CDK2/Cyclin E1,8.51
same,pIC50,CDK1/Cyclin B1,6.80
"CC(C)NC(=O)O[C@H]1CC[C@@H](c2cc(Nc3ccc4c(c3)C(C)S(=O)(=O)N4)n[nH]2)C1 (single isomer, unassigned) [Example 384c, cis-3-(3-((3-methyl-2,2-dioxido-1,3-dihydrobenzo[c]isothiazol-5-yl)amino)-1H-pyrazol-5-yl)cyclopentyl isopropylcarbamate]",pIC50,CDK2/Cyclin E1,8.92
same,pIC50,CDK1/Cyclin B1,7.85
"CC(C)NC(=O)O[C@H]1CC[C@@H](c2cc(Nc3ccc4c(c3F)C(C)NS4(=O)=O)n[nH]2)C1 (single isomer, unassigned) [Example 51a, cis-3-(3-((4-fluoro-3-methyl-1,1-dioxido-2,3-dihydrobenzo[d]isothiazol-5-yl)amino)-1H-pyrazol-5-yl)cyclopentyl isopropylcarbamate]",pIC50,CDK2/Cyclin E1,8.60
same,pIC50,CDK1/Cyclin B1,6.71
"CC(C)NC(=O)O[C@H]1CC[C@@H](c2cc(Nc3cc4c(cc3C(F)(F)F)S(=O)(=O)NC4)n[nH]2)C1 (relative stereo) [Example 20, cis-3-(3-((1,1-dioxido-6-(trifluoromethyl)-2,3-dihydrobenzo[d]isothiazol-5-yl)amino)-1H-pyrazol-5-yl)cyclopentyl isopropylcarbamate]",pIC50,CDK2/Cyclin E1,6.03
same,pIC50,CDK1/Cyclin B1,< 5.00
"CC(C)NC(=O)N[C@H]1CC[C@@H](c2cc(Nc3ccc4c(c3)CNS4(=O)=O)n[nH]2)C1 (relative stereo) [Example 19, cis-1-(3-(3-((1,1-dioxido-2,3-dihydrobenzo[d]isothiazol-5-yl)amino)-1H-pyrazol-5-yl)cyclopentyl)-3-isopropylurea]",pIC50,CDK2/Cyclin E1,6.52
same,pIC50,CDK1/Cyclin B1,5.97
"CC(C)NC(=O)O[C@H]1CC[C@@H](c2cc(Nc3ccc4c(c3)CS(=O)(=O)N4C3COC3)n[nH]2)C1 (relative stereo) [Example 209, cis-3-(3-((1-(oxetan-3-yl)-2,2-dioxido-1,3-dihydrobenzo[c]isothiazol-5-yl)amino)-1H-pyrazol-5-yl)cyclopentyl isopropylcarbamate]",pIC50,CDK2/Cyclin E1,8.27
same,pIC50,CDK1/Cyclin B1,7.43
"COCC(C)NC(=O)O[C@H]1CC[C@@H](c2cc(Nc3ccc4c(c3)CS(=O)(=O)N4)n[nH]2)C1 (relative stereo) [Example 197, cis-3-(3-((2,2-dioxido-1,3-dihydrobenzo[c]isothiazol-5-yl)amino)-1H-pyrazol-5-yl)cyclopentyl(1-methoxypropan-2-yl)carbamate]",pIC50,CDK2/Cyclin E1,7.92
same,pIC50,CDK1/Cyclin B1,6.92
"O=C(NCCC(F)(F)F)O[C@H]1CC[C@@H](c2cc(Nc3ccc4c(c3F)CNS4(=O)=O)n[nH]2)C1 (single isomer, unassigned) [Example 154b, cis-3-(3-((4-fluoro-1,1-dioxido-2,3-dihydrobenzo[d]isothiazol-5-yl)amino)-1H-pyrazol-5-yl)cyclopentyl(3,3,3-trifluoropropyl)carbamate]",pIC50,CDK2/Cyclin E1,8.46
same,pIC50,CDK1/Cyclin B1,7.16
"CC(CC(F)(F)F)NC(=O)O[C@H]1CC[C@@H](c2cc(Nc3ccc4c(c3)CS(=O)(=O)N4C)n[nH]2)C1 (relative stereo) [Example 229, cis-3-(3-((1-methyl-2,2-dioxido-1,3-dihydrobenzo[c]isothiazol-5-yl)amino)-1H-pyrazol-5-yl)cyclopentyl(4,4,4-trifluorobutan-2-yl)carbamate]",pIC50,CDK2/Cyclin E1,8.19
same,pIC50,CDK1/Cyclin B1,7.52
"COCC(C)(C)NC(=O)O[C@H]1CC[C@@H](c2cc(Nc3ccc4c(c3F)CNS4(=O)=O)n[nH]2)C1 (relative stereo) [Example 364, cis-3-(3-((4-fluoro-1,1-dioxido-2,3-dihydrobenzo[d]isothiazol-5-yl)amino)-1H-pyrazol-5-yl)cyclopentyl(1-methoxy-2-methylpropan-2-yl)carbamate]",pIC50,CDK2/Cyclin E1,8.80
same,pIC50,CDK1/Cyclin B1,6.99
"COCC1(NC(=O)O[C@H]2CC[C@@H](c3cc(Nc4ccc5c(c4)CS(=O)(=O)N5C)n[nH]3)C2)CC1 (relative stereo) [Example 228, cis-3-(3-((1-methyl-2,2-dioxido-1,3-dihydrobenzo[c]isothiazol-5-yl)amino)-1H-pyrazol-5-yl)cyclopentyl(1-(methoxymethyl)cyclopropyl)carbamate]",pIC50,CDK2/Cyclin E1,8.03
same,pIC50,CDK1/Cyclin B1,6.91
"CCCNC(=O)O[C@H]1CC[C@@H](c2cc(Nc3ccc4c(c3F)CN(C)S4(=O)=O)n[nH]2)C1 (single isomer, unassigned) [Example 122b, cis-3-(3-((4-fluoro-2-methyl-1,1-dioxido-2,3-dihydrobenzo[d]isothiazol-5-yl)amino)-1H-pyrazol-5-yl)cyclopentyl propylcarbamate]",pIC50,CDK2/Cyclin E1,8.06
same,pIC50,CDK1/Cyclin B1,6.91
